Measurements: ChEMBL document CHEMBL6127028, “Design and synthesis of TH19P01-Camptothecin based hybrid peptides inducing effective anticancer responses on sortilin positive cancer cells” (Bioorg Med Chem, 2024)
In brackets after ≈: the same amount, converted by molar mass. Activity calls are given as the source filed them. No cut-off for these calls is given here. Where a SMILES comes first, the peptide text is derived from it. [ ]: non-standard residue; d: D form. The star is where a group is joined. Succinyl(20-O-(20S)-CPT) = CC[C@@]1(OC(=O)CCC(=O)*)C(=O)OCc2c1cc1n(c2=O)Cc2cc3ccccc3nc2-1; Dnp = O=[N+]([O-])c1ccc(*)c([N+](=O)[O-])c1; DEAC = CCN(CC)c1ccc2cc(C(=O)*)c(=O)oc2c1; Nle = CCCC[C@H](N)C(=O)O

Experiments:
[1] = Prodrug conversion in 5% human serum assessed as CPT release by measuring increase in fluorescence intensity at 50 uM measured at 0 hrs by fluorescence spectrophotometric analysis; assay type: ADME, cell-free
[2] = Prodrug conversion in 5% human serum assessed as CPT release by measuring increase in fluorescence intensity at 50 uM measured for 6 days by fluorescence spectrophotometric analysis; assay type: ADME, cell-free; settings: 144 h, time 6 day
MDA-MB-231 [3] = assay: Cytostatic activity against human MDA-MB-231 cells overexpressing SORT1 assessed as reduction in cell viability incubated for 72 hrs by MTT assay; assay type: functional, cell-based; settings: MDA-MB-231, 72 h
[4] = Prodrug conversion in human MDA-MB-231 cells overexpressing SORT1 assessed as CPT release by measuring increase in fluorescence intensity at 1.5 uM measured for 120 hrs by fluorescence based analysis; assay type: ADME, cell-based; settings: mda-mb-231, 120 h
MDA-MB-231 [5] = assay: Anti-proliferative activity against human MDA-MB-231 cells assessed as inhibition of cell proliferation at 1XIC50 measured at <36 hrs by time-kill curve analysis; assay type: functional
[6] = Induction of hemolysis in mouse erythrocytes assessed as hemolysis rate at 0.3 uM incubated for 4 hrs; assay type: toxicity, cell-based, Erythrocyte; settings: read-out: Activity
MDA-MB-231 [7] = assay: Anti-proliferative activity against human MDA-MB-231 cells assessed as inhibition of cell proliferation at 0.5XIC50 to 1XIC50 measured after 36 to 72 hrs by time-kill curve analysis; assay type: functional, cell-based; settings: time 36-72 hrs
MDA-MB-231 [8] = assay: Anti-proliferative activity against human MDA-MB-231 cells assessed as inhibition of cell proliferation at 1XIC50 measured after 72 hrs by time-kill curve analysis; assay type: functional
[9] = Aqueous solubility of the compound in water by UV/Vis spectrophotometry relative to free camptothecin; assay type: physicochemical; settings: buffer
4T1 [10] = assay: Cytostatic activity against mouse 4T1 cells expressing low SORT1 assessed as reduction in cell viability incubated for 72 hrs by MTT assay; assay type: functional, cell-based; settings: 4T1, 72 h
Erythrocyte [11] = assay: Induction of hemolysis in mouse erythrocytes at 0.03 to 30 uM incubated for 4 hrs; assay type: toxicity, cell-based; settings: dose 0.03-30 µM
4T1 [12] = assay: Anti-migration activity against mouse 4T1 cells assessed as cell motility at 1.5 uM incubated for 2 hrs followed by PBS washing and incubation in complete medium for 24 hrs by wound healing assay (reference value: 68.9%); assay type: functional
[13] = Induction of hemolysis in mouse erythrocytes assessed as hemolysis rate at 30 uM incubated for 4 hrs; assay type: toxicity, cell-based, Erythrocyte; settings: read-out: Activity
[14] = Drug uptake in human MDA-MB-231 cells assessed as increase in blue fluorescence intensity at 10 uM measured after 2 to 12 hrs by SYBR Green I staining based live cell imaging analysis; assay type: ADME; settings: mda-mb-231, 10 µM, time 2-12 hrs
[15] = Cytostatic activity against HEK293T cells assessed as reduction in cell viability incubated for 72 hrs by MTT assay; assay type: toxicity, cell-based, HEK-293T; settings: human
MDA-MB-231 [16] = assay: Anti-migration activity against human MDA-MB-231 cells assessed as cell motility at 1.5 uM incubated for 2 hrs followed by PBS washing and incubation in complete medium for 24 hrs by wound healing assay (reference value: 55.3%); assay type: functional
[17] = Cytostatic activity against mouse L929 cells assessed as reduction in cell viability incubated for 72 hrs by MTT assay; assay type: toxicity, cell-based
[18] = Drug uptake in human MDA-MB-231 cells assessed as increase in blue fluorescence intensity at 10 uM by SYBR Green I staining based live cell imaging analysis; assay type: ADME; settings: mda-mb-231, 10 µM, TDE = time-dependent effect, time 2-12 hrs
4T1 [19] = assay: Anti-migration activity against mouse 4T1 cells at 1.5 uM incubated for 2 hrs in presence of TH19P01 followed by PBS washing and incubation in complete medium for 24 hrs by wound healing assay; assay type: functional, cell-based
Erythrocyte [20] = assay: Induction of hemolysis in mouse erythrocytes at >3 uM incubated for 4 hrs in presence of TH19P01; assay type: toxicity, cell-based
[21] = Aqueous solubility of the compound in water by UV/Vis spectrophotometry; assay type: physicochemical
4T1 [22] = assay: Cytostatic activity against mouse 4T1 cells expressing low SORT1 assessed as reduction in cell viability incubated for 72 hrs in presence of TH19P01 by MTT assay; assay type: functional, cell-based; settings: 4T1, 72 h
MDA-MB-231 [23] = assay: Anti-proliferative activity against human MDA-MB-231 cells assessed as inhibition of cell proliferation at 1XIC50 measured after 72 hrs in presence of TH19P01 by time-kill curve analysis; assay type: functional
MDA-MB-231 [24] = assay: Cytostatic activity against human MDA-MB-231 cells overexpressing SORT1 assessed as reduction in cell viability incubated for 72 hrs in presence of TH19P01 by MTT assay; assay type: functional, cell-based; settings: MDA-MB-231, 72 h
MDA-MB-231 [25] = assay: Anti-proliferative activity against human MDA-MB-231 cells assessed as inhibition of cell proliferation at 1XIC50 measured for 0 to 72 hrs in presence of TH19P01 by time-kill curve analysis; assay type: functional, cell-based; settings: time 0-72 hrs
MDA-MB-231 [26] = assay: Anti-proliferative activity against human MDA-MB-231 cells assessed as inhibition of cell proliferation at 1XIC50 measured for 0 to 72 hrs by time-kill curve analysis; assay type: functional, cell-based; settings: time 0-72 hrs
MDA-MB-231 [27] = assay: Anti-migration activity against human MDA-MB-231 cells assessed as cell motility at 1.5 uM incubated for 2 hrs in presence of TH19P01 followed by PBS washing and incubation in complete medium for 24 hrs by wound healing assay (reference value: 55.3%); assay type: functional
[28] = Drug uptake in human MDA-MB-231 cells assessed as increase in blue fluorescence intensity at 10 uM measured after 2 to 12 hrs in presence of TH19P01 by SYBR Green I staining based live cell imaging analysis; assay type: ADME; settings: mda-mb-231, 10 µM, time 2-12 hrs
MDA-MB-231 [29] = assay: Anti-proliferative activity against human MDA-MB-231 cells assessed as inhibition of cell proliferation at 1.5 uM measured for 0 to 72 hrs by time-kill curve analysis; assay type: functional; settings: time 0-72 hrs

Row | Structure (SMILES) | IC50 (MDA-MB-231 [3]) | inhibition (INH) (MDA-MB-231 [8]) | IC50 (4T1 [10]) | Activity (Erythrocyte [11]) | Activity (4T1 [12]) | IC50 at 72 h [15] | Activity (MDA-MB-231 [16]) | IC50 at 72 h [17] | further results
1 | CCCC[C@H](NC(=O)[C@H](CC(N)=O)NC(=O)[C@H](CCCNC(=N)N)NC(=O)[C@@H](NC(=O)CNC(=O)[C@H](C)NC(=O)[C@H](CCCCNC(=O)CCC(=O)O[C@]1(CC)C(=O)OCc2c1cc1n(c2=O)Cc2cc3ccccc3nc2-1)NC(=O)[C@H](CCCCNc1ccc([N+](=O)[O-])cc1[N+](=O)[O-])NC(=O)[C@H](C)NC(=O)[C@H](CCCNC(=N)N)NC(=O)[C@@H](NC(=O)CNC(C)=O)C(C)C)C(C)C)C(=O)N[C@@H](Cc1ccccc1)C(=O)N[C@@H](CCCCNc1ccc([N+](=O)[O-])cc1[N+](=O)[O-])C(=O)N[C@@H](CCCCNC(=O)CCC(=O)O[C@]1(CC)C(=O)OCc2c1cc1n(c2=O)Cc2cc3ccccc3nc2-1)C(=O)N[C@@H](CO)C(=O)N[C@@H](CCC(=O)O)C(=O)N[C@@H](CO)C(=O)N[C@@H](Cc1ccc(O)cc1)C(N)=O (Ac-GVRAK(Dnp)K(Succinyl(20-O-(20S)-CPT))AGVRN[Nle]FK(Dnp)K(Succinyl(20-O-(20S)-CPT))SESY-NH2) | 1520 nM | – | – | – | – | – | – | – | Drug metabolism [1]: Metabolite_Notdetected; Drug metabolism [2]: Metabolite_Detected; Drug metabolism [4]: Metabolite_Detected
2 | CCCC[C@H](NC(=O)[C@H](CC(N)=O)NC(=O)[C@H](CCCNC(=N)N)NC(=O)[C@@H](NC(=O)CNC(=O)[C@H](C)NC(=O)[C@H](CCCCNC(=O)CCC(=O)O[C@]1(CC)C(=O)OCc2c1cc1n(c2=O)Cc2cc3ccccc3nc2-1)NC(=O)[C@H](C)NC(=O)[C@H](CCCNC(=N)N)NC(=O)[C@@H](NC(=O)CNC(C)=O)C(C)C)C(C)C)C(=O)N[C@@H](Cc1ccccc1)C(=O)N[C@@H](CCCCNC(=O)CCC(=O)O[C@]1(CC)C(=O)OCc2c1cc1n(c2=O)Cc2cc3ccccc3nc2-1)C(=O)N[C@@H](CO)C(=O)N[C@@H](CCC(=O)O)C(=O)N[C@@H](CO)C(=O)N[C@@H](Cc1ccc(O)cc1)C(N)=O (Ac-GVRAK(Succinyl(20-O-(20S)-CPT))AGVRN[Nle]FK(Succinyl(20-O-(20S)-CPT))SESY-NH2) | 1470 nM | 45.3% | 2050 nM | Toxic | 58.6% | 11100 nM | 13.3% | > 100000 nM | inhibition (INH) (MDA-MB-231 [5]): <10%; hemolysis at 4 h, 0.3 µM [6]: 1.5%; Activity (MDA-MB-231 [7]): Dose-Dependent Effect; fold change (FC) [9]: 90; hemolysis at 4 h, 30 µM [13]: < 5%; Drug uptake [14]: Active
3 | CCCC[C@H](NC(=O)[C@H](CC(N)=O)NC(=O)[C@H](CCCNC(=N)N)NC(=O)[C@@H](NC(=O)CNC(=O)[C@H](C)NC(=O)[C@H](CCCCNC(=O)c1cc2ccc(N(CC)CC)cc2oc1=O)NC(=O)[C@H](C)NC(=O)[C@H](CCCNC(=N)N)NC(=O)[C@@H](NC(=O)CNC(C)=O)C(C)C)C(C)C)C(=O)N[C@@H](Cc1ccccc1)C(=O)N[C@@H](CCCCNC(C)=O)C(=O)N[C@@H](CO)C(=O)N[C@@H](CCC(=O)O)C(=O)N[C@@H](CO)C(=O)N[C@@H](Cc1ccc(O)cc1)C(N)=O (Ac-GVRAK(DEAC)AGVRN[Nle]FK(Ac)SESY-NH2) | > 100000 nM | – | – | – | – | – | – | – | Drug uptake [18]: Tde
4 | CC[C@@]1(O)C(=O)OCc2c1cc1n(c2=O)Cc2cc3ccccc3nc2-1 [CAMPTOTHECIN] | 630 nM | 52.8% | 30 nM | Toxic | 69.2% | < 10 nM | 44.6% | 15700 nM | Activity (4T1 [19]): Active; Activity (Erythrocyte [20]): Toxic; solubility [21]: 3.6 µM (≈ 1.25 µg/mL); IC50 (4T1 [22]): < 32 nM; inhibition (INH) (MDA-MB-231 [23]): 50.8%; IC50 (MDA-MB-231 [24]): 720 nM; Activity (MDA-MB-231 [25]): Active; Activity (MDA-MB-231 [26]): Active; Activity (MDA-MB-231 [27]): 37.7%; Drug uptake [28]: Active
5 | CCCC[C@H](NC(=O)[C@H](CC(N)=O)NC(=O)[C@H](CCCNC(=N)N)NC(=O)[C@@H](NC(=O)CNC(=O)[C@H](C)NC(=O)[C@H](CCCCN)NC(=O)[C@H](C)NC(=O)[C@H](CCCNC(=N)N)NC(=O)[C@@H](NC(=O)CNC(C)=O)C(C)C)C(C)C)C(=O)N[C@@H](Cc1ccccc1)C(=O)N[C@@H](CCCCN)C(=O)N[C@@H](CO)C(=O)N[C@@H](CCC(=O)O)C(=O)N[C@@H](CO)C(=O)N[C@@H](Cc1ccc(O)cc1)C(N)=O (Ac-GVRAKAGVRN[Nle]FKSESY-NH2) | > 100000 nM | – | > 100000 nM | Toxic | 67.9% | > 100000 nM | 46.3% | > 100000 nM | inhibition at 1.5 µM (MDA-MB-231 [29]): < 10%
